The target in this assay is Recombinant human HSD17B13 (Homo sapiens (Human), UniProt Q7Z5P4). As to the kind of experiment: HSD17B13 rapid-fire mass spectrometry assay (RF/MS assay). Format: biochemical. To be noted: inhibition of HSD17B13; LTB4 10 μM, NAD+ 0.5 mM, RT 3 h; IC50 ranges A-E. The method in brief: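 Product 12-oxo-LTB4 and substrate LTB4 quantified by RapidFire triple-quad MS in negative mode, giving percent conversion. Reaction: 80 nM recombinant hHSD17B13, 10 μM LTB4, 0.5 mM NAD+, compound up to 100 μM, pH 7.5, RT, 3 h. Variable-slope fit gave IC50; run in duplicate.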
Sequence of Recombinant human HSD17B13 (Q7Z5P4 20-300): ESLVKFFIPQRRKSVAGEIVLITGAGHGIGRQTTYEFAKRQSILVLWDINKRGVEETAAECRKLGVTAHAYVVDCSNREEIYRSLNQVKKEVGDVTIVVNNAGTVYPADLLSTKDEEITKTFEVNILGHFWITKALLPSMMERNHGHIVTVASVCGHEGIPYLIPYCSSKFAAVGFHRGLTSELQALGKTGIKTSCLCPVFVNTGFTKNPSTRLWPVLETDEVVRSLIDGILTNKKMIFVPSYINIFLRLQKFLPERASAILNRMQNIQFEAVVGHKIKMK

As usually defined, the IC50 is the concentration that gives 50% inhibition.

As for `COc1cc(C#Cc2nc(S(=O)(=O)Nc3ccc(C(=O)O)cc3OC)cs2)ccn1` [Example 246], the IC50 was 0.5 to 1 µM.
As for `COc1cc(C(=O)O)ccc1NS(=O)(=O)c1csc(C#Cc2cc(C(F)(F)F)[nH]c(=O)c2)n1` [Example 247, 3-methoxy-4-((2-((2-oxo-6-(trifluoromethyl)-1,2-dihydropyridin-4-yl)ethynyl)thiazole)-4-sulfonamido)benzoic acid], the figure is 0.1 to 0.5 µM; as for `COc1cncc(C#Cc2nc(S(=O)(=O)Nc3ccc(C(=O)O)cc3OC)cs2)c1` [Example 248], 0.1 to 0.5 µM.
As for `COc1cc(C(=O)O)ccc1NS(=O)(=O)c1ccc(-c2cccc(-c3ccccc3)c2)s1` [Example 249, 4-((5-([1,1′-biphenyl]-3-yl)thiophene)-2-sulfonamido)-3-methoxybenzoic acid], the figure is 0.1 to 0.5 µM.
As for `COc1cc(C(=O)O)ccc1NS(=O)(=O)c1ccc(-c2cccc(-c3ccc(C)cc3)c2)s1` [Example 250, 3-methoxy-4-((5-(4′-methyl-[1,1′-biphenyl]-3-yl)thiophene)-2-sulfonamido)benzoic acid], the figure is 0.1 to 0.5 µM; as for `COc1cc(C(=O)O)ccc1NS(=O)(=O)c1ccc(-c2cccc(-c3ccc(F)cc3)c2)s1` [Example 251], 0.1 to 0.5 µM; as for `COc1cc(C(=O)O)ccc1NS(=O)(=O)c1ccc(-c2cccc(-c3ccc(C(F)(F)F)cc3)c2)s1` [Example 252], 0.5 to 1 µM.
As for `COc1ccc(-c2cccc(-c3ccc(S(=O)(=O)Nc4ccc(C(=O)O)cc4OC)s3)c2)cc1` [Example 253], the IC50 was in the range of 0.1 to 0.5 µM.
As for `COc1cc(C(=O)O)ccc1NS(=O)(=O)c1ccc(-c2cccc(-c3ccc(OC(F)(F)F)cc3)c2)s1` [Example 254], the figure is 0.5 to 1 µM.
As for `COc1cc(C(=O)O)ccc1NS(=O)(=O)c1csc(N2Cc3ccccc3C2)n1` [Example 255], the figure is 1 to 100 µM.
As for `COc1cc(C(=O)O)ccc1NS(=O)(=O)c1csc(N2CCC(c3ccccc3)CC2)n1` [Example 256], the figure is 1 to 100 µM; as for `COc1cc(C(=O)O)ccc1NS(=O)(=O)c1csc(N2CCN(c3ccccc3)CC2)n1` [Example 257], 0.5 to 1 µM; as for `COc1cc(C(=O)O)ccc1NS(=O)(=O)c1csc(N2CCCC(Cc3ccccc3)C2)n1` (stereo not shown) [Example 258], 0.5 to 1 µM.
For the compound `COc1cc(C(=O)O)ccc1NS(=O)(=O)c1csc(N2CCC(c3ccccc3)C2)n1` (stereo not shown) [Example 259], the IC50 was in the range of 1 to 100 µM.
In the case of `COc1cc(C(=O)O)ccc1NS(=O)(=O)c1csc(N2CCC(Cc3ccccc3)CC2)n1` [Example 260], the IC50 was in the range of 1 to 100 µM.
For `COc1cc(C(=O)O)ccc1NS(=O)(=O)c1csc(N2CCCC(Nc3ccccc3)C2)n1` (stereo not shown) [Example 261], the IC50 lay in the range of 0.5 to 1 µM.
Take `COc1cc(C(=O)O)ccc1NS(=O)(=O)c1csc(N2CCC(c3ccccn3)CC2)n1` [Example 262]: the IC50 lay in the range of 1 to 100 µM.
As for `COc1cc(C(=O)O)ccc1NS(=O)(=O)c1csc(N2CCC(c3nnn[nH]3)CC2)n1` [Example 263], the figure is 1 to 100 µM; as for `COc1cc(C(=O)O)ccc1NS(=O)(=O)c1csc(N2CCN(c3nccs3)CC2)n1` [Example 264], 1 to 100 µM.
As for `COc1cc(C(=O)O)ccc1NS(=O)(=O)c1csc(N2CCN(C3CCCC3)CC2)n1` [Example 265], the figure is 1 to 100 µM; as for `COc1cc(C(=O)O)ccc1NS(=O)(=O)c1csc(N2CCN(c3ccc(OC(F)(F)F)cc3)C(=O)C2)n1` [Example 266], 1 to 100 µM.
As for `COc1cc(C(=O)O)ccc1NS(=O)(=O)c1csc(N2CC(c3ccccc3)C2)n1` [Example 267], the figure is 1 to 100 µM; as for `COc1cc(C(=O)O)ccc1NS(=O)(=O)c1csc(N2CC=C(c3ccccc3)C2)n1` [Example 268], 0.1 to 0.5 µM; as for `COc1cc(C(=O)O)ccc1NS(=O)(=O)c1csc(N2CCCC(c3ccccc3)C2)n1` (stereo not shown) [Example 269], 0.1 to 0.5 µM.
`COc1cc(C(=O)O)ccc1NS(=O)(=O)c1csc(N2CCCCC2c2ccccc2)n1` (stereo not shown) [Example 270]: the IC50 lay in the range of 0.1 to 0.5 µM.
As for `COc1cc(C(=O)O)ccc1NS(=O)(=O)c1csc(N2CCN(c3ccc(OC(F)(F)F)cc3)CC2)n1` [Example 271], the figure is 0.1 to 0.5 µM; as for `COc1cc(C(=O)O)ccc1NS(=O)(=O)c1csc(N2CCN(c3ccc(C(F)(F)F)cc3)CC2)n1` [Example 272], 0.1 to 0.5 µM; as for `COc1cc(C(=O)O)ccc1NS(=O)(=O)c1csc(N2CCCC(NCc3ccccc3)C2)n1` (stereo not shown) [Example 273], 1 to 100 µM.
Regarding `COc1cc(C(=O)O)ccc1NS(=O)(=O)c1csc(N2CCCC(Cc3ccc(C)cc3)C2)n1` (stereo not shown) [Example 274], the IC50 was 0.5 to 1 µM.
As to `COc1ccc(CC2CCCN(c3nc(S(=O)(=O)Nc4ccc(C(=O)O)cc4OC)cs3)C2)cc1` (stereo not shown) [Example 275], the IC50 lay in the range of 1 to 100 µM.
As for `COc1cc(C(=O)O)ccc1NS(=O)(=O)c1csc(N2CCCC(Oc3ccccc3)C2)n1` (stereo not shown) [Example 276], the figure is 1 to 100 µM; as for `COc1cc(C(=O)O)ccc1NS(=O)(=O)c1csc(N2CCCC(CCc3ccccc3)C2)n1` (stereo not shown) [Example 277], 1 to 100 µM.
As for `COc1cc(C(=O)O)ccc1NS(=O)(=O)c1csc(N2CCN(c3ccc(C)cc3)CC2)n1` [Example 278], the figure is 1 to 100 µM.
As for `COc1cc(C(=O)O)ccc1NS(=O)(=O)c1csc(N2CCC[C@@H](Cc3ccc(F)cc3)C2)n1` [Example 279], the figure is 1 to 100 µM.
With `COc1cc(C(=O)O)ccc1NS(=O)(=O)c1csc(-c2ccc(-c3ccc(OC(F)(F)F)cc3)cc2)n1` [Example 280], the IC50 lay within 0.1 to 0.5 µM.
In the case of `COc1cc(C(=O)O)ccc1NS(=O)(=O)c1csc(-c2ccc(C3CCCCC3)cc2)n1` [Example 281, 4-((2-(4-cyclohexylphenyl)thiazole)-4-sulfonamido)-3-methoxybenzoic acid], the IC50 was 0.1 to 0.5 µM.
As for `COc1cc(C(=O)O)ccc1NS(=O)(=O)c1csc(N2CCN(c3cccc(OC(F)(F)F)c3)CC2)n1` [Example 282], the figure is 0.1 to 0.5 µM; as for `COc1cc(C(=O)O)ccc1NS(=O)(=O)c1csc(N2CCCC(Cc3ccc(C(F)(F)F)cc3)C2)n1` (stereo not shown) [Example 283], 0.1 to 0.5 µM; as for `COc1cc(C(=O)O)ccc1NS(=O)(=O)c1csc(-c2ccc(N3CCCCC3)cc2)n1` [Example 284], 0.1 to 0.5 µM.
Turning to `COc1cc(C(=O)O)ccc1NS(=O)(=O)c1csc(N2CCN(c3ccc(Br)cc3)CC2)n1` [Example 285], the IC50 was 1 to 100 µM.
With `COc1cc(C(=O)O)ccc1NS(=O)(=O)c1csc(N2CCCC(C(=O)c3ccccc3)C2)n1` (stereo not shown) [Example 286], the IC50 was 0.5 to 1 µM.
As for `COc1cc(C(=O)O)ccc1NS(=O)(=O)c1csc(N2CCN(C(=O)c3ccccc3)CC2)n1` [Example 287], the IC50 was 1 to 100 µM.
As for `COc1cc(C(=O)O)ccc1NS(=O)(=O)c1csc(N2CCN(c3ccc(-c4ccccc4)cc3)CC2)n1` [Example 288], the figure is 0.1 to 0.5 µM; as for `COc1cc(C(=O)O)ccc1NS(=O)(=O)c1csc(N2C[C@@H]3C[C@H]2CN3c2ccccc2)n1` [Example 289], 0.5 to 1 µM; as for `COc1cc(C(=O)O)ccc1NS(=O)(=O)c1csc(N2CCN(S(=O)(=O)c3ccc(C)cc3)CC2)n1` [Example 290], 1 to 100 µM.
As for `COc1cc(C(=O)O)ccc1NS(=O)(=O)c1csc(N2CCN(c3ccc(N(C)C)cc3)CC2)n1` [Example 291], the figure is 1 to 100 µM; as for `COc1cc(C(=O)O)ccc1NS(=O)(=O)c1csc(N2CCCC(c3ccc(F)cc3)C2)n1` (stereo not shown) [Example 292], 1 to 100 µM.
As for `COc1cc(C(=O)O)ccc1NS(=O)(=O)c1csc(N2CCCC(c3ccc(C(F)(F)F)cc3)C2)n1` (stereo not shown) [Example 293], the figure is 1 to 100 µM; as for `COc1cc(C(=O)O)ccc1NS(=O)(=O)c1csc(N2CCN(C(=O)OCc3ccccc3)CC2)n1` [Example 294], 0.1 to 0.5 µM.
With `COc1cc(C(=O)O)ccc1NS(=O)(=O)c1csc(N2CCCC(C(C)c3ccccc3)C2)n1` (stereo not shown) [Example 295], the IC50 fell in the range of 1 to 100 µM.
`COc1cc(C(=O)O)ccc1NS(=O)(=O)c1csc(-c2ccc(-c3ccc(F)cc3)cc2)n1` [Example 296]: the IC50 lay within 1 to 100 µM.
As to `COc1cc(C(=O)O)ccc1NS(=O)(=O)c1csc(-c2ccc(C(=O)c3ccccc3)cc2)n1` [Example 297], the 50% inhibitory concentration (IC50) was 0.5 to 1 µM.
As to `COc1cc(C(=O)O)ccc1NS(=O)(=O)c1ccc(-c2csc(C)n2)cc1` [Example 298], the IC50 fell in the range of 1 to 100 µM.
As for `COc1cc(C(=O)O)ccc1NS(=O)(=O)c1csc(-c2ccc(-c3ccccc3)nc2)n1` [Example 299], the figure is 1 to 100 µM; as for `COc1cc(C(=O)O)ccc1NS(=O)(=O)c1csc(-c2ccc(C3CCCC3)cc2)n1` [Example 300], 0.5 to 1 µM.
As for `COc1cc(C(=O)O)ccc1NS(=O)(=O)c1csc(-c2ccc(-c3ccccc3)cc2)n1` [Example 301], the figure is 0.5 to 1 µM; as for `COc1cc(C(=O)O)ccc1NS(=O)(=O)c1csc(-c2ccc(-c3ccccc3)c(F)c2)n1` [Example 302], 0.1 to 0.5 µM.
As for `COc1cc(C(=O)O)ccc1NS(=O)(=O)c1csc(-c2ccc(N3CCOCC3)cc2)n1` [Example 303], the figure is 1 to 100 µM; as for `COc1cc(C(=O)O)ccc1NS(=O)(=O)c1csc(-c2ccc(-c3ccccc3)cc2F)n1` [Example 304], 0.5 to 1 µM.
As for `COc1cc(C(=O)O)ccc1NS(=O)(=O)c1csc(N2CCN(C(=O)OC(C)(C)C)CC2)n1` [Example 305, 4-((2-(4-(tert-butoxycarbonyl)piperazin-1-yl)thiazole)-4-sulfonamido)-3-methoxybenzoic acid], the IC50 was 1 to 100 µM.
As for `COc1cc(C(=O)O)ccc1NS(=O)(=O)c1nc(-c2ccc(F)cc2)sc1-c1ccccc1` [Example 306], the figure is 1 to 100 µM.

The record behind these values is patent publication US12384753B2, “17-beta-hydroxysteroid dehydrogenase type 13 inhibitors and methods of use thereof” (Enanta Pharmaceuticals, Inc., priority 2021, dated 2025).
